Assay results from ChEMBL document CHEMBL1201862, “PubChem BioAssay data set” (2004).
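A five-concentration, 48-hour dose response in 96-well plates underlies each endpoint, interpolated linearly between surrounding concentrations. At the GI50, growth is halved.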 Calls of active or inactive are those of the source. Rule as the data show it: active = GI50 up to about 1.1 µM and inactive = higher.

How the values were obtained:
Test in all cases: DTP human tumour cell line panel, 48 h
786-0 = test system: 786-0
A498 = test system: A498
A549 = test system: A549
ACHN = test system: ACHN
BT-549 = test system: BT-549
CAKI-1 = test system: CAKI-1
CCRF-CEM = test system: CCRF-CEM
COLO 205 = test system: COLO 205
DU-145 = test system: DU-145
EKVX = test system: EKVX
HCC 2998 = test system: HCC 2998
HCT-116 = test system: HCT-116
HCT-15 = test system: HCT-15
HL-60 = test system: HL-60
HOP-62 = test system: HOP-62
HOP-92 = test system: HOP-92
HT-29 = test system: HT-29
Hs-578T = test system: Hs-578T
IGROV-1 = test system: IGROV-1
K562 = test system: K562
KM12 = test system: KM12
LOX IMVI = test system: LOX IMVI
M14 = test system: M14
MCF7 = test system: MCF7
MDA-MB-231 = test system: MDA-MB-231
MDA-MB-435 = test system: MDA-MB-435
MDA-N = test system: MDA-N
MOLT-4 = test system: MOLT-4
Malme-3M = test system: Malme-3M
NCI-H226 = test system: NCI-H226
NCI-H23 = test system: NCI-H23
NCI-H460 = test system: NCI-H460
NCI-H522 = test system: NCI-H522
NCI/ADR-RES = test system: NCI/ADR-RES
OVCAR-3 = test system: OVCAR-3
OVCAR-4 = test system: OVCAR-4
OVCAR-5 = test system: OVCAR-5
OVCAR-8 = test system: OVCAR-8
PC-3 = test system: PC-3
RPMI-8226 = test system: RPMI-8226
RXF 393 = test system: RXF 393
SF-268 = test system: SF-268
SF-295 = test system: SF-295
SF-539 = test system: SF-539
SK-MEL-28 = test system: SK-MEL-28
SK-MEL-2 = test system: SK-MEL-2
SK-MEL-5 = test system: SK-MEL-5
SK-OV-3 = test system: SK-OV-3
SN12C = test system: SN12C
SNB-19 = test system: SNB-19
SNB-75 = test system: SNB-75
SR = test system: SR
SW-620 = test system: SW-620
T47D = test system: T47D
TK-10 = test system: TK-10
U-251 = test system: U-251
UACC-257 = test system: UACC-257
UACC-62 = test system: UACC-62
UO-31 = test system: UO-31

Measured: GI50

CC(C)CSCC1OC(n2cnc3c(N)nccc32)C(O)C1O (stereo not drawn)
inactive: 786-0 > 100 µM | A498 > 100 µM | A549 > 100 µM | ACHN > 100 µM | BT-549 > 100 µM | CAKI-1 > 100 µM | CCRF-CEM > 100 µM | COLO 205 > 86.1 µM | DU-145 > 100 µM | EKVX 89.5 µM | HCC 2998 27.9 µM | HCT-116 > 100 µM | HL-60 > 100 µM | HOP-62 > 100 µM | HOP-92 > 72.9 µM | HT-29 > 100 µM | Hs-578T > 72.1 µM | IGROV-1 > 100 µM | K562 > 75 µM | KM12 > 100 µM | LOX IMVI > 100 µM | M14 > 100 µM | MCF7 > 100 µM | MDA-MB-231 > 100 µM | MDA-MB-435 > 100 µM | MDA-N > 100 µM | MOLT-4 > 87.5 µM | Malme-3M > 100 µM | NCI-H226 > 57.1 µM | NCI-H23 > 100 µM | NCI-H460 > 100 µM | NCI-H522 45.8 µM | NCI/ADR-RES > 100 µM | OVCAR-3 > 100 µM | OVCAR-4 > 100 µM | OVCAR-5 > 100 µM | OVCAR-8 > 100 µM | PC-3 > 100 µM | RPMI-8226 > 67 µM | RXF 393 > 52 µM | SF-268 > 100 µM | SF-295 > 100 µM | SF-539 > 100 µM | SK-MEL-28 > 100 µM | SK-MEL-2 > 100 µM | SK-MEL-5 43.8 µM | SK-OV-3 > 100 µM | SN12C > 100 µM | SNB-19 > 100 µM | SNB-75 > 100 µM | SR > 100 µM | SW-620 > 100 µM | T47D > 100 µM | TK-10 > 100 µM | U-251 > 100 µM | UACC-257 > 85.3 µM | UACC-62 > 100 µM | UO-31 > 100 µM
> 100 µM: HCT-15

COc1ccc(-n2c(Cn3nnc(-c4cccnc4)n3)nn(C3OC(COC(=O)c4ccccc4)C(OC(=O)c4ccccc4)C3OC(=O)c3ccccc3)c2=S)cc1 (stereo not drawn)
inactive: 786-0 > 100 µM | A498 > 100 µM | A549 > 100 µM | ACHN > 100 µM | BT-549 > 100 µM | CAKI-1 > 100 µM | CCRF-CEM > 100 µM | COLO 205 > 100 µM | DU-145 > 100 µM | EKVX 39.4 µM | HCC 2998 > 100 µM | HCT-116 > 100 µM | HL-60 > 100 µM | HOP-62 > 100 µM | HOP-92 > 100 µM | HT-29 50.9 µM | Hs-578T > 100 µM | IGROV-1 32.4 µM | K562 > 100 µM | KM12 > 100 µM | LOX IMVI > 100 µM | M14 > 100 µM | MCF7 > 100 µM | MDA-MB-231 49 µM | MDA-MB-435 > 100 µM | MDA-N > 100 µM | MOLT-4 > 100 µM | Malme-3M > 100 µM | NCI-H226 14.2 µM | NCI-H23 > 100 µM | NCI-H460 > 100 µM | NCI-H522 > 100 µM | NCI/ADR-RES > 100 µM | OVCAR-3 > 100 µM | OVCAR-4 > 100 µM | OVCAR-5 > 100 µM | OVCAR-8 > 100 µM | PC-3 > 100 µM | RPMI-8226 > 100 µM | RXF 393 > 100 µM | SF-268 > 100 µM | SF-295 > 100 µM | SF-539 > 100 µM | SK-MEL-28 > 100 µM | SK-MEL-2 > 100 µM | SK-MEL-5 > 100 µM | SK-OV-3 > 100 µM | SN12C > 100 µM | SNB-19 74 µM | SNB-75 > 100 µM | SR > 100 µM | SW-620 > 100 µM | T47D > 100 µM | TK-10 > 100 µM | U-251 > 100 µM | UACC-257 > 100 µM | UACC-62 > 100 µM | UO-31 > 100 µM
> 100 µM: HCT-15
